SMILES strings stand for the structures.

Sequence of B-Raf (V600E)-kinase (P15056 whole entry V600E): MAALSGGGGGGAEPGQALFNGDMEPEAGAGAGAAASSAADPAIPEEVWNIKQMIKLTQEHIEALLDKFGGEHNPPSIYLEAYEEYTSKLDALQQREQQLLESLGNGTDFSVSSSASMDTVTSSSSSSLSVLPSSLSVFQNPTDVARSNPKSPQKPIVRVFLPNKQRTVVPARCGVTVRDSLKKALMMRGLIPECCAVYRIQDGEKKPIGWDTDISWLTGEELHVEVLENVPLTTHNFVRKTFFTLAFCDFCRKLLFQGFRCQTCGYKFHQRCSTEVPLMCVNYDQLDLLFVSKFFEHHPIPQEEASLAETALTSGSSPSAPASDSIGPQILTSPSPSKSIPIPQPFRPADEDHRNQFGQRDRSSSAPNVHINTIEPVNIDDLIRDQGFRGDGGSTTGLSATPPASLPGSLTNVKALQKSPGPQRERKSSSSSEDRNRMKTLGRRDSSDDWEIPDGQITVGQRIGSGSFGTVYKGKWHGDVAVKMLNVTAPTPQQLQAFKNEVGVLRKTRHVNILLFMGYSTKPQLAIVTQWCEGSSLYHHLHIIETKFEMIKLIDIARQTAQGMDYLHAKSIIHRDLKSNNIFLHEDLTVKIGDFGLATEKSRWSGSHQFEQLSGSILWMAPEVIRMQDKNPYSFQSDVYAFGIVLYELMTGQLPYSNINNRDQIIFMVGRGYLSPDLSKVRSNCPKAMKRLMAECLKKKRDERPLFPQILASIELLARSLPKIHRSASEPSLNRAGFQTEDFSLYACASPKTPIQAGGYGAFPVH

The target of the experiment is B-Raf (V600E)-kinase (Homo sapiens (Human), UniProt P15056, V600E). In words: Kinase test B-Raf (V600E). The conditions noted are these: 250 μM ATP, biotinylated MEK1 substrate. The format is biochemical. As for the experimental part:
In a dilution series 10 μL of test substance solution are placed in a multiwell plate. The dilution series is selected so that generally a range of concentrations of 2 μM to 0.128 nM or 0.017 nM is covered. If necessary the initial concentration of 2 μM is changed to 50 μM, 10 μM or 0.4 μM or 0.2857 μM and further dilution is carried out accordingly. The final concentration of DMSO is 5%. 10 μL of the B-Raf (V600E)-kinase solution are pipetted in (containing 0.5 ng B-Raf (V600E)-kinase in 20 mM Tris-HCl pH 7.5, 0.1 mM EDTA, 0.1 mM EGTA, 0.286 mM sodium orthovanadate, 10% glycerol, 1 mg/mL bovine serum albumin, 1 mM dithiothreitol) and the mixture is incubated for 1 h at RT under with shaking. The kinase reaction is started by the addition of 20 μL ATP solution [final concentration: 250 μM ATP, 30 mM Tris-HCl pH 7.5, 0.02% Brij, 0.2 mM sodium orthovanadate, 10 mM magnesium acetate, phosphatase cocktail (Sigma, #P2850, dilution recommended by the manufacturer), 0.1 mM EGTA] and 10 μL MEK1 solution [containing 50 ng biotinylated MEK1 (prepared from purified MEK1 according to standard procedure, e.g. with EZ-Link Sulpho-NHS-LC-Biotin reagent, Pierce, #21335) in 50 mM Hepes pH 7.5, 150 mM NaCl, 10% glycerol, 0.02% Brij-35, 0.2 mM PMSF, 0.2 mM benzamidine] and carried out for 60 min at RT with constant shaking. The reaction is stopped by the addition of 12 μL of a 100 mM EDTA solution and incubation is continued for a further 5 min. 55 μL of the reaction solution are transferred into a streptavidin-coated plate (e.g. Streptawell HighBond, Roche, #11989685001) and shaken gently for 1 h at RT, in order to bind biotinylated MEK1 to the plate. After elimination of the liquid the plate is washed five times with 200 μL of 1×PBS and 100 μL solution of primary antibody plus europium-labelled secondary antibody [Anti Phospho-MEK (Ser217/221), Cell Signaling, #9121 and Eu-N1 labeled goat-anti-rabbit antibody, Perkin Elmer, #AD0105], the primary antibody is diluted 1:2000 and the secondary antibody is diluted to 0.4-0.5 μg/mL in Delfia Assay Buffer (Perkin Elmer, #1244-111). After 1 h shaking at RT the solution is poured away and washed five times with 200 μL Delfia Wash Buffer (Perkin Elmer, #4010-0010/#1244-114). After the addition of 200 μL Enhancement Solution (Perkin Elmer, #4001-0010/#1244-105) the mixture is shaken for 10 min at RT and then measured in a Wallac Victor using the program “Delfia Time Resolved Fluorescence (Europium)”. IC50 values are obtained from these dosage-activity curves using a software program (GraphPadPrizm).
As to `COc1c(NC(=O)c2ccc(C)c(Nc3ncnc4ccc(N5CCOCC5)nc34)c2)cc(C(C)(C)C)cc1NS(C)(=O)=O` [III-24], the midpoint of inhibition, the IC50, lay at 50 nM.

The molecule `COc1c(NC(=O)c2ccc(C)c(Nc3ncnc4ccc(N5CCN(CCN6CCOCC6)CC5)nc34)c2)cc(C(C)(C)C)cc1NS(C)(=O)=O` [III-25] gave an IC50 of 638 nM.

The molecule `COc1c(NC(=O)c2ccc(C)c(Nc3ncnc4ccc(N5CCC(N6CCOCC6)C5)nc34)c2)cc(C(C)(C)C)cc1NS(C)(=O)=O` (stereo not shown) [III-26] came in with an IC50 of 1460 nM. Compared with the last molecule, the IC50 is about 2.3-fold higher.

As for `COc1c(NC(=O)c2ccc(C)c(Nc3ncnc4ccc(C5=CCNCC5)nc34)c2)cc(C(C)(C)C)cc1NS(C)(=O)=O` [III-27], the IC50 is 101 nM.

The molecule `COc1c(NC(=O)c2ccc(C)c(Nc3ncnc4ccc(C)nc34)c2)cc(C(C)(C)C)cc1NS(C)(=O)=O` [III-28] came in with an IC50 of 431 nM. Against the preceding molecule, the IC50 is about 4.3-fold higher.

As for `COc1c(NC(=O)c2ccc(C)c(Nc3ncnc4ccc(C5=CCN(C(C)C)CC5)nc34)c2)cc(C(C)(C)C)cc1NS(C)(=O)=O` [III-29], it took 295 nM to reach half-maximal inhibition (IC50). This IC50 and that of the molecule before are within 1.5-fold of each other.

On to `COc1c(NC(=O)c2ccc(C)c(Nc3ncnc4ccc(C5=CCN(C)CC5)nc34)c2)cc(C(C)(C)C)cc1NS(C)(=O)=O` [III-30], for which half-maximal inhibition (IC50) required 344 nM.

Regarding `COc1c(NC(=O)c2ccc(C)c(Nc3ncnc4ccc(C5CCNCC5)nc34)c2)cc(C(C)(C)C)cc1NS(C)(=O)=O` [III-31], the half-inhibitory concentration (IC50) was found to be 70 nM.

On to `COc1c(NC(=O)c2ccc(C)c(Nc3ncnc4ccc(C5CCN(C)CC5)nc34)c2)cc(C(C)(C)C)cc1NS(C)(=O)=O` [III-32], for which the 50% inhibitory concentration (IC50) was 151 nM.

With `CCN1CCC(c2ccc3ncnc(Nc4cc(C(=O)Nc5cc(C(C)(C)C)cc(NS(C)(=O)=O)c5OC)ccc4C)c3n2)CC1` [III-33], the midpoint of inhibition, the IC50, lay at 185 nM.

The molecule `COc1c(NC(=O)c2ccc(C)c(Nc3ncnc4ccc(C5CCN(C(C)C)CC5)nc34)c2)cc(C(C)(C)C)cc1NS(C)(=O)=O` [III-34] yielded an IC50 of 257 nM. The IC50 values of the last two molecules are within 1.5-fold of each other.

On to `COc1c(NC(=O)c2ccc(C)c(Nc3ncnc4ccc(C5CCN(CC6CC6)CC5)nc34)c2)cc(C(C)(C)C)cc1NS(C)(=O)=O` [III-35], for which the IC50 amounted to 288 nM.

Molecule `COCCN1CCC(c2ccc3ncnc(Nc4cc(C(=O)Nc5cc(C(C)(C)C)cc(NS(C)(=O)=O)c5OC)ccc4C)c3n2)CC1` [III-36] came in with an IC50 of 443 nM.

On to `COc1c(NC(=O)c2ccc(C)c(Nc3ncnc4ccc(CC5CCNCC5)nc34)c2)cc(C(C)(C)C)cc1NS(C)(=O)=O` [III-37], for which the half-inhibitory concentration (IC50) turned out to be 170 nM.

Turning to `COc1c(NC(=O)c2ccc(C)c(Nc3ncnc4ccc(C5=CCNC5)nc34)c2)cc(C(C)(C)C)cc1NS(C)(=O)=O` [III-38], the half-inhibitory concentration (IC50) turned out to be 282 nM.

In the case of `COc1c(NC(=O)c2ccc(C)c(Nc3ncnc4ccc(C5CCNC5)nc34)c2)cc(C(C)(C)C)cc1NS(C)(=O)=O` (stereo not shown) [III-39], the midpoint of inhibition, the IC50, lay at 151 nM. Against the preceding molecule, the IC50 is about 1.9-fold lower.

As to `COc1c(NC(=O)c2ccc(C)c(Nc3ncnc4ccc(C5CCN(C)C5)nc34)c2)cc(C(C)(C)C)cc1NS(C)(=O)=O` (stereo not shown) [III-40], half-maximal inhibition (IC50) was put at 286 nM.

In turn, `COCCN1CCC(c2ccc3ncnc(Nc4cc(C(=O)Nc5cc(C(C)(C)C)cc(NS(C)(=O)=O)c5OC)ccc4C)c3n2)C1` (stereo not shown) [III-41] displayed a half-inhibitory concentration (IC50) of 315 nM.

Molecule `COc1c(NC(=O)c2ccc(C)c(Nc3ncnc4ccc(C5CCCNC5)nc34)c2)cc(C(C)(C)C)cc1NS(C)(=O)=O` (stereo not shown) [III-42] had a 50% inhibitory concentration (IC50) of 229 nM.

In turn, `COc1c(NC(=O)c2ccc(C)c(Nc3ncnc4ccc(CC5CNCCOC5)nc34)c2)cc(C(C)(C)C)cc1NS(C)(=O)=O` (stereo not shown) [III-43] came in with an IC50 of 213 nM. This IC50 and that of the molecule before are within 1.5-fold of each other.

In turn, `COc1c(NC(=O)c2ccc(C)c(Nc3ncnc4ccc(CC5CCN(C)CC5)nc34)c2)cc(C(C)(C)C)cc1NS(C)(=O)=O` [III-44] yielded a half-maximal inhibitory concentration (IC50) of 364 nM.

The molecule `CCN1CCC(Cc2ccc3ncnc(Nc4cc(C(=O)Nc5cc(C(C)(C)C)cc(NS(C)(=O)=O)c5OC)ccc4C)c3n2)CC1` [III-45] returned a concentration for half-maximal inhibition (IC50) of 530 nM.

On to `COc1c(NC(=O)c2ccc(C)c(Nc3ncnc4ccc(CC5CCN(C(C)C)CC5)nc34)c2)cc(C(C)(C)C)cc1NS(C)(=O)=O` [III-46], for which the 50% inhibitory concentration (IC50) is 553 nM.

`COc1c(NC(=O)c2ccc(C)c(Nc3ncnc4ccc(CC5CCN(CC6CC6)CC5)nc34)c2)cc(C(C)(C)C)cc1NS(C)(=O)=O` [III-47] displayed an IC50 of 504 nM. The IC50 values of the last two molecules are within 1.5-fold of each other.

The molecule `CCCN1CCC(Cc2ccc3ncnc(Nc4cc(C(=O)Nc5cc(C(C)(C)C)cc(NS(C)(=O)=O)c5OC)ccc4C)c3n2)CC1` [III-48] returned a concentration for half-maximal inhibition (IC50) of 583 nM.

`COCCN1CCC(Cc2ccc3ncnc(Nc4cc(C(=O)Nc5cc(C(C)(C)C)cc(NS(C)(=O)=O)c5OC)ccc4C)c3n2)CC1` [III-49] gave a 50% inhibitory concentration (IC50) of 496 nM.

As to `CCOCCN1CCC(Cc2ccc3ncnc(Nc4cc(C(=O)Nc5cc(C(C)(C)C)cc(NS(C)(=O)=O)c5OC)ccc4C)c3n2)CC1` [III-50], the half-maximal inhibitory concentration (IC50) amounted to 479 nM.

`Cc1ccc(C(=O)Nc2cc(C(C)(C)C)on2)cc1Nc1ncnc2ccc(C3=CCNCC3)nc12` [III-51]: 23 nM corresponded to half-maximal inhibition (IC50).

For the molecule `COCCN1CCN(c2ccc3ncnc(Sc4cc(C(=O)Nc5cccc(C(C)(C)C#N)c5)ccc4C)c3n2)CC1` [III-52], it took 261 nM to reach half-maximal inhibition (IC50).

Turning to `COCCN1CCN(c2ccc3ncnc(Sc4cc(C(=O)Nc5cc(N6CCN(C)CC6)cc(C(F)(F)F)c5)ccc4C)c3n2)CC1` [III-53], the IC50 is 190 nM. This IC50 and that of the molecule before are within 1.5-fold of each other.

`COCCN1CCN(c2ccc3ncnc(Sc4cc(C(=O)Nc5cc(C(C)(C)C)on5)ccc4C)c3n2)CC1` [III-54] yielded an IC50 of 269 nM.

In turn, `COCCN1CCN(c2ccc3ncnc(Sc4cc(C(=O)Nc5cc(C(C)(C)C)cc(NS(C)(=O)=O)c5OC)ccc4C)c3n2)CC1` [III-55] gave an IC50 of 1620 nM.

Regarding `Cc1ccc(NC(=O)c2cccc(C(C)(C)C#N)c2)cc1Nc1ncnc2ccc(N3CCOCC3)nc12` [IV-1], the 50% inhibitory concentration (IC50) amounted to 4 nM.

Molecule `Cc1ccc(NC(=O)c2cccc(C(C)(C)C#N)c2)cc1Nc1ncnc2ccc(N3CCN(C)CC3)nc12` [IV-2] came in with an IC50 of 8 nM.

On to `COCCN1CCN(c2ccc3ncnc(Nc4cc(NC(=O)c5cccc(C(C)(C)C#N)c5)ccc4C)c3n2)CC1` [IV-3], for which half-maximal inhibition (IC50) required 18 nM.

In turn, `Cc1ccc(NC(=O)c2cccc(C(C)(C)C#N)c2)cc1Nc1ncnc2ccc(N3CC[C@H](F)C3)nc12` [IV-4] yielded an IC50 of 11 nM.

`Cc1ccc(NC(=O)c2cccc(C(C)(C)C#N)c2)cc1Nc1ncnc2ccc(N[C@H]3CCOC3)nc12` [IV-5] came in with an IC50 of 5 nM.

By IC50 is commonly meant the concentration at which inhibition is half-maximal. A higher IC50 goes with weaker potency.
